From ChEMBL document CHEMBL4811258, “Potent Antimalarials with Development Potential Identified by Structure-Guided Computational Optimization of a Pyrrole-Based Dihydroorotate Dehydrogenase Inhibitor Series” (J Med Chem, 2021)
The source made the active and inactive calls. No cut-off for these calls is given here.

Experiments:
[1] = system: Plasmodium falciparum; experiment: Antiplasmodial activity against asexual blood stage Plasmodium falciparum D10 expressing yeast DHODH infected in human erythrocytes assessed as parasite killing; type: functional, organism-based
[2] = Inhibition of dog DHODH up to 100 uM; design: species or system Canis lupus familiaris; details: up to 100 µM
[3] = Volume of distribution at steady state in Swiss mouse at […], iv measured up to 24 hrs by LC-MS analysis; type: ADME, organism-based; details: in vivo, dose 2.3 mg/kg, read-out: Vdss
[4] = AUC (0 to infinity) in Swiss mouse at 24 mg/kg, po measured up to 24 hrs by LC-MS analysis; type: ADME, organism-based; design: route oral, dose 24 mg/kg, time <=24; details: in vivo
[5] = system: HepG2; experiment: Cytotoxicity against human HepG2 cells; type: cell-based
[6] = system: Plasmodium falciparum; experiment: Antiplasmodial activity against Plasmodium falciparum 3D7 Uganda infected in human erythrocytes assessed as parasite killing using albumax media measured after 72 hrs by SYBR Green assay; type: functional, organism-based; details: 3D7, 72 h
[7] = system: Plasmodium falciparum; experiment: Antimalarial activity against Plasmodium falciparum 3D70087/N9 infected in NOD-SCID IL2Rgamma null mouse assessed as parasitemia level at 50 mg/kg, po administered days after 3 post infection once daily for 4 days measured on day 7 by flow cytometry; type: functional, organism-based; details: time 4.0 day
[8] = mouse, plasma
[9] = Unbound intrinsic clearance in mouse liver microsomes at 1 uM measured up to 4 hrs by LC-MS analysis; type: ADME, Microsome
[10] = human, plasma
[11] = system: Plasmodium falciparum
[12] = Unbound AUC in orally dosed NOD-SCID IL2Rgamma null mouse infected with Plasmodium falciparum 3D70087/N9 administered days after 3 post infection once daily for 4 days measured on day 7 by flow cytometry; type: ADME, organism-based; details: in vivo, po, 96 h, time 4 day
[13] = Binding affinity to microsome (unknown origin); type: ADME; details: microsomes
[14] = rat, in vivo, po, 10 mg/kg, 24 h
[15] = rat, in vivo, po, 10 mg/kg, 24 h; remark: listed apart in the source
[16] = system: L1210; experiment: Cytotoxicity against mouse L1210 cells; type: cell-based
[17] = target: T1, Cytochrome P450 2C8 (Homo sapiens, UniProt P10632)
T1 sequence (P10632 whole entry): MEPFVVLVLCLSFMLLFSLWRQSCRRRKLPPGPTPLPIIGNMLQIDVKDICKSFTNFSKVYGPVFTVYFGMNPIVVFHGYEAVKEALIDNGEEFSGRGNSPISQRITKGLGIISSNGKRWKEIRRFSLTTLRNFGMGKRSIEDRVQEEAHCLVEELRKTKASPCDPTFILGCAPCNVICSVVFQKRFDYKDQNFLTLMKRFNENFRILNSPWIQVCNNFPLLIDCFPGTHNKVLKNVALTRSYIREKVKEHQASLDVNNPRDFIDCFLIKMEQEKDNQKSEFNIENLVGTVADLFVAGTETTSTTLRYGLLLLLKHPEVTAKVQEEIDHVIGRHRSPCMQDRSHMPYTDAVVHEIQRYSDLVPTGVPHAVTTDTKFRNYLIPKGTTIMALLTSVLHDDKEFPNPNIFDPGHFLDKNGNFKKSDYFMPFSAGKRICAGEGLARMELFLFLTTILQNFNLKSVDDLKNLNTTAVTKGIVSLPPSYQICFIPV

[18] = target: Cytochrome P450 3A4 (Homo sapiens, UniProt P08684)
[19] = AUC (0 to infinity) in Swiss mouse at […], po measured up to 24 hrs by LC-MS analysis; type: ADME, organism-based; design: route oral, dose 2.6 mg/kg, time <=24; details: in vivo
[20] = Mutagenicity in Salmonella typhimurium by Ames test; type: toxicity; details: salmonella enterica subsp. enterica serovar typhimurium
[21] = target: Dihydroorotate dehydrogenase (quinone), mitochondrial (Rattus norvegicus, UniProt Q63707); experiment: Inhibition of rat DHODH up to 100 uM; details: up to 100 µM
[22] = Half life in Swiss mouse at 24 mg/kg, po measured up to 24 hrs by LC-MS analysis; type: ADME, organism-based; details: in vivo
[23] = Oral bioavailability in Sprague-Dawley rat at 17 mg/kg measured up to 24 hrs; type: ADME, organism-based; details: in vivo
[24] = Oral bioavailability in Swiss mouse at 24 mg/kg measured up to 24 hrs by LC-MS analysis; type: ADME, organism-based; details: in vivo
[25] = system: Plasmodium falciparum; experiment: Antimalarial activity against Plasmodium falciparum 3D70087/N9 infected in orally dosed NOD-SCID IL2Rgamma null mouse assessed as parasitemia level administered days after 3 post infection once daily for 4 days measured on day 7 by flow cytometry; type: functional; details: time 4 day
[26] = AUC (0 to infinity) in Sprague-Dawley rat at 17 mg/kg, po measured up to 24 hrs; type: ADME, organism-based; design: route oral, dose 17 mg/kg, time <=24; details: in vivo
[27] = in vivo; details: Swiss, mouse, po
[28] = Half life in Swiss mouse at […], po measured up to 24 hrs by LC-MS analysis; type: ADME, organism-based; details: in vivo, dose 2.6 mg/kg
[29] = target: Dihydroorotate dehydrogenase (quinone), mitochondrial (Mus musculus, UniProt O35435); experiment: Inhibition of mouse DHODH up to 100 uM; details: up to 100 µM
[30] = human, caco-2, pH 7.4
[31] = system: Plasmodium falciparum; experiment: Antimalarial activity against Plasmodium falciparum 3D70087/N9 infected in orally dosed NOD-SCID IL2Rgamma null mouse assessed as parasitemia level in human red blood cells at 50 mg/kg, po administered days after 1 day post infection twice daily for 6 days measured on day 7 by flow cytometry; type: functional, organism-based; details: time 6.0 day
[32] = Cmax in Sprague-Dawley rat at 17 mg/kg, po measured up to 24 hrs; type: ADME, organism-based; design: route oral, dose 17 mg/kg, time <=24; details: in vivo
[33] = Plasma clearance in Sprague-Dawley rat at […], iv measured up to 24 hrs; type: ADME, organism-based; details: dose 1.8 mg/kg
[34] = Oral bioavailability in Swiss mouse at […] measured up to 24 hrs by LC-MS analysis; type: ADME, organism-based; details: in vivo, dose 2.6 mg/kg
[35] = Plasma clearance in Swiss mouse at […], iv measured up to 24 hrs by LC-MS analysis; type: ADME, organism-based; details: dose 2.3 mg/kg
[36] = system: Plasmodium falciparum; experiment: Antiplasmodial activity against Plasmodium falciparum Dd2 Uganda infected in human erythrocytes assessed as parasite killing using albumax media measured after 72 hrs by SYBR Green assay; type: functional, organism-based; details: Dd2, 72 h
[37] = rat, in vivo, po, 10 mg/kg, 24 h; remark: listed apart in the source
[38] = target: Albumin (Bos taurus, UniProt P02769); experiment: Binding affinity to bovine serum albumin by Albumax assay; type: ADME; details: cattle, isolated protein
[39] = Intrinsic clearance in mouse liver microsomes at 1 uM measured up to 4 hrs by LC-MS analysis; type: ADME, Microsome
[40] = rat, in vivo, po, 10 mg/kg, 24 h; remark: listed apart in the source
[41] = Apparent half life in Sprague-Dawley rat at 17 mg/kg, po measured up to 24 hrs; type: ADME, organism-based; details: in vivo, read-out: t1/2(app) (converted)
[42] = Cmax in Swiss mouse at […], po measured up to 24 hrs by LC-MS analysis; type: ADME, organism-based; design: route oral, dose 2.6 mg/kg, time <=24; details: in vivo

Sequence of Cytochrome P450 3A4 (P08684 whole entry): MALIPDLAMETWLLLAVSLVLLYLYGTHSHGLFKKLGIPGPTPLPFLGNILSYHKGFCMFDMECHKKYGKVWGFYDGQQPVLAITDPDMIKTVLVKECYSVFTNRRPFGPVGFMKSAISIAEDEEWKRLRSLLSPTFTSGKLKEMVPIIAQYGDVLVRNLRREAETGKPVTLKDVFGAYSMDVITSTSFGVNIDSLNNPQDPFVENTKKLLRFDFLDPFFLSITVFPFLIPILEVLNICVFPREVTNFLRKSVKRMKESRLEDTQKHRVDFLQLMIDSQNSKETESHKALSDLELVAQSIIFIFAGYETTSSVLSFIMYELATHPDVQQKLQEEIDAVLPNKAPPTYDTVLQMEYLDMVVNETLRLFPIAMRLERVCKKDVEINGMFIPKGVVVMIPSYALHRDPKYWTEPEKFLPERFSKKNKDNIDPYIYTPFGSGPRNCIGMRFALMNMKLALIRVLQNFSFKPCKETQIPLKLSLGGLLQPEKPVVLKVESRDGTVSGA
Sequence of Dihydroorotate dehydrogenase (quinone), mitochondrial (Mus musculus, UniProt O35435) (O35435 whole entry): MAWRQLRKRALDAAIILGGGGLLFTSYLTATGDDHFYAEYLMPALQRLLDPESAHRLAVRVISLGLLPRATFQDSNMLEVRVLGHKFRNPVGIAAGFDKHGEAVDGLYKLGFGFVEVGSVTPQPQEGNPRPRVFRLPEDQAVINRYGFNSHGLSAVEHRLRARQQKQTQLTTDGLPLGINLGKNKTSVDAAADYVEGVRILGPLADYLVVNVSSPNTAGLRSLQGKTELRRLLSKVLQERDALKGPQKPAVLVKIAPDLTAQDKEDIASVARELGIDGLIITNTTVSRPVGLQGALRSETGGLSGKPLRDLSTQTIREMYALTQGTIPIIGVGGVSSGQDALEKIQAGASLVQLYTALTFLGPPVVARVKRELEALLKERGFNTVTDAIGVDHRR
Sequence of Albumin (P02769 whole entry): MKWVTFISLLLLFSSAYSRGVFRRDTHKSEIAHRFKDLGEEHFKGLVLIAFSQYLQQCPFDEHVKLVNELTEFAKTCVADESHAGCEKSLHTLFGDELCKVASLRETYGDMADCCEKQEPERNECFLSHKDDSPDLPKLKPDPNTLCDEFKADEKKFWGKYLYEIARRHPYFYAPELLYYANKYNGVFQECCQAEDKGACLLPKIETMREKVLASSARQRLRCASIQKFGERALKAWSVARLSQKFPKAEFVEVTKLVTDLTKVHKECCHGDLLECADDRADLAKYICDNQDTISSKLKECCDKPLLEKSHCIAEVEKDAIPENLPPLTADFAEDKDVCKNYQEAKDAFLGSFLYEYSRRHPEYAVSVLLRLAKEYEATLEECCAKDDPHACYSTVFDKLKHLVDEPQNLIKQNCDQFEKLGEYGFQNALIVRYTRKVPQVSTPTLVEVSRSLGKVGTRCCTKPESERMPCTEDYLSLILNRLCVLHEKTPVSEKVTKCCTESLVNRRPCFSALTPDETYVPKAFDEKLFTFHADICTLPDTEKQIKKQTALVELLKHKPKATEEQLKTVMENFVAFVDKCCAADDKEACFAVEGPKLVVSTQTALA
Sequence of Dihydroorotate dehydrogenase (quinone), mitochondrial (Rattus norvegicus, UniProt Q63707) (Q63707 whole entry): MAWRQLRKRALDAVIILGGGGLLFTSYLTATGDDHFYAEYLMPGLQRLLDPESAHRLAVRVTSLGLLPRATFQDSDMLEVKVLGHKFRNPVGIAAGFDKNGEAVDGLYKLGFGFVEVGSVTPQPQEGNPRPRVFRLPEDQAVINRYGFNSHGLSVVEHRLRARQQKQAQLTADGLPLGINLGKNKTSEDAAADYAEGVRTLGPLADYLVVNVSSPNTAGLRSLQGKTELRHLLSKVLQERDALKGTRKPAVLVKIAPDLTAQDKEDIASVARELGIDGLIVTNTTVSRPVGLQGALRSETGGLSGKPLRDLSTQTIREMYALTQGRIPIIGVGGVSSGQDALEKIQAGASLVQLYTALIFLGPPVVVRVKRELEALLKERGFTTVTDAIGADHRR

Cc1c(C2(c3ccc(C(F)(F)F)nc3)CC2)c[nH]c1C(=O)NC(C)c1nc[nH]n1 (stereo in doubt; form 1)
EC50 [1]: > 10000 nM | inhibition (INH) [2]: Not Active | Vd at 24 h [3]: 1.3 L/kg | AUC [4]: 250 µM·h | Activity [5]: Non-Toxic | EC50 [6]: 7.5 nM | Activity [7]: Active | PPB [8]: 92.1% | CL free [9]: 17 µL/min/mg | PPB [10]: 92.8% | EC50 [11]: 170 nM | fAUC [12]: 4.1 µM·h | Activity [13]: 34.2% | Cmax [14]: 6 µM | F [15]: 77% | Activity [16]: Non-Toxic | IC50 [17]: > 20000 nM | TDI [18]: Not Active | AUC(0-inf) at 24 h [19]: 29 µM·h | Activity [20]: Non-Toxic | inhibition (INH) [21]: Not Active | t1/2 [22]: 4.5 h | bioavailability [23]: 110% | F [24]: 70% | ED50 [25]: 26 mg/kg | AUC(0-inf) [26]: 120 µM·h | Tmax at 24 h [27]: 4 h | half-life at 24 h [28]: 3.4 h | inhibition (INH) [29]: Not Active | Papp [30]: 70 10^-6 cm/s | Activity [31]: Active | Cmax [32]: 14 µM | clearance at 24 h [33]: 6.8 mL/min/kg | bioavailability at 24 h [34]: 74% | clearance at 24 h [35]: 2.8 mL/min/kg | EC50 [36]: 6.9 nM | AUC [37]: 47 µM·h | Activity [38]: 71.9% | Intrinsic clearance [39]: 11 µL/min/mg | t1/2(app) [40]: 5.9 h | half-life [41]: 3.7 h | Cmax at 24 h [42]: 2.6 µM
